pEC50: −log10 of the molar value.
System: MOLM-13 cells
Assay: Caspase cleavage assay (Caspase3, 7 activation)
Format: cell-based
Details: Homo sapiens, 16 h treatment, caspase substrate Z-DEVD-R110, read-out: c* Concentration at which 50% of the maximum signal was achieved (caspase activation)
Experimental: Caspase3, 7 Activation. MOLM-13 cells (30,000 cells/well) were plated in black 96-well plates (Corning Cat. #3603) in 40 μL of RPMI media, and left in an incubator (37° C., 5% CO2) for up to 24 h. Cells were treated for 16 h with compounds or DMSO (control) at desired concentrations in 50 μL of media. Drugs were added in triplicate wells. Following exposure of cells to Hsp70 inhibitors, 50 μL of buffer containing 10 mM HEPES (pH 7.5), 2 mM EDTA, 0.1% CHAPS and the caspase substrate Z-DEVD-R110 at 25 μM was added to each well. Plates were incubated until the signal stabilized and then the fluorescence signal of each well was measured in an Analyst GT microplate reader. The percentage increase in apoptotic cells was calculated by comparison of the fluorescence reading obtained from treated versus control cells.

| pEC50 | Structure (SMILES) |
| --- | --- |
| 6.00 to 6.40 | CN1CCN(c2ncc(Sc3ccc(N)nc3)c(OCc3cccc(C(F)(F)F)c3)n2)CC1 [146e, 5-((2-(4-Methylpiperazin-1-yl)-4-((3-(trifluoromethyl)benzyl)oxy)pyrimidin-5-yl)thio)pyridin-2-amine] |
| 6.00 to 6.40 | CN1CCN(c2ncc(Sc3ccc(C(N)=O)cc3)c(OCc3cccc(-n4cccn4)c3)n2)CC1 [100f, 4-((4-((3-(1H-Pyrazol-1-yl)benzyl)oxy)-2-(4-methylpiperazin-1-yl)pyrimidin-5-yl)thio)benzamide] |
| 6.40 to 6.70 | CN1CCN(c2ncc(Sc3ccc(C(N)=O)cc3)c(OCCc3ccccc3)n2)CC1 [100h, 4-((2-(4-Methylpiperazin-1-yl)-4-phenethoxypyrimidin-5-yl)thio)benzamide] |
| 6.00 to 6.40 | CN1CCN(c2ncc(Sc3ccc(O)cc3)c(OCc3ccccc3)n2)CC1 [compound 37, 4-((4-(Benzyloxy)-2-(4-methylpiperazin-1-yl)pyrimidin-5-yl)thio)phenol] |
| 6.40 to 6.70 | CN1CCN(c2ncc(Sc3ccc(C(N)=O)c(Cl)c3)c(OCc3cccc(OC(F)F)c3)n2)CC1 [compound 121, 2-Chloro-4-((4-((3-(difluoromethoxy)benzyl)oxy)-2-(4-methylpiperazin-1-yl)pyrimidin-5-yl)thio)benzamide] |
| 6.40 to 6.70 | CN(C)[C@@H]1CCN(c2ncc(Sc3ccc(C(N)=O)cc3)c(OCc3cccc(I)c3)n2)C1 [compound 369, (R)-4-((2-(3-(Dimethylamino)pyrrolidin-1-yl)-4-((3-iodobenzyl)oxy)pyrimidin-5-yl)thio)benzamide] |
| ≤ 5.92 | C[C@@H](Oc1nc(N2CCN(C)CC2)ncc1Sc1ccc(C(N)=O)cc1)c1ccc(F)cc1 [100o, (R)-4-((4-(1-(4-Fluorophenyl)ethoxy)-2-(4-methylpiperazin-1-yl)pyrimidin-5-yl)thio)benzamide] |
| 6.40 to 6.70 | CN1CCN(c2ncc(Cc3ccc(C(N)=O)cc3)c(OCc3ccccc3)n2)CC1 [compound 299, 4-((4-(Benzyloxy)-2-(4-methylpiperazin-1-yl)pyrimidin-5-yl)methyl)benzamide] |
| > 6.70 | COc1cccc(COc2nc(N3CCN(C)CC3)ncc2Sc2ccc(C(N)=O)cc2)c1 [100g, 4-((4-((3-Methoxybenzyl)oxy)-2-(4-methylpiperazin-1-yl)pyrimidin-5-yl)thio)benzamide] |
| 6.40 to 6.70 | C#CCCCCN1CCN(c2ncc(Sc3ccc(C(N)=O)c(C(F)(F)F)c3)c(OCc3cccc(Cl)c3)n2)CC1 [compound 226, 4-((4-((3-Chlorobenzyl)oxy)-2-(4-(hex-5-yn-1-yl)piperazin-1-yl)pyrimidin-5-yl)thio)-2-(trifluoromethyl)benzamide] |
| > 6.70 | COc1cccc(COc2nc(N3CCN(Cc4ccco4)CC3)ncc2Sc2ccc(C(N)=O)cc2)c1 [190u, 4-((2-(4-(Furan-2-ylmethyl)piperazin-1-yl)-4-((3-methoxybenzyl)oxy)pyrimidin-5-yl)thio)benzamide] |
| > 6.70 | C=CCN1CCN(c2ncc(Sc3ccc(C(N)=O)cc3)c(OCc3cccc(OC)c3)n2)CC1 [190o, 4-((2-(4-Allylpiperazin-1-yl)-4-((3-methoxybenzyl)oxy)pyrimidin-5-yl)thio)benzamide] |
| 6.00 to 6.40 | Cc1cccc(COc2nc(N3CCN(C)CC3)ncc2Sc2ccc(C(N)=O)c(C(F)(F)F)c2)c1 [compound 329, 4-((4-((3-Methylbenzyl)oxy)-2-(4-methylpiperazin-1-yl)pyrimidin-5-yl)thio)-2-(trifluoromethyl)benzamide] |
| 6.40 to 6.70 | CN1CCN(c2ncc(Sc3ccc(C(=O)N(C)C)cc3)c(OCc3ccccc3)n2)CC1 [compound 84, 4-((4-(Benzyloxy)-2-(4-methylpiperazin-1-yl)pyrimidin-5-yl)thio)-N,N-dimethylbenzamide] |
| > 6.70 | COc1cc(COc2nc(N3CCN(C)CC3)ncc2Sc2ccc(C(N)=O)c(Cl)c2)ccn1 [compound 124, 2-Chloro-4-((4-((2-methoxypyridin-4-yl)methoxy)-2-(4-methylpiperazin-1-yl)pyrimidin-5-yl)thio)benzamide] |
| 6.40 to 6.70 | CN1CCN(c2ncc(Sc3ccc(C(N)=O)c(C(F)(F)F)c3)c(OCc3ccc(F)c(Br)c3)n2)CC1 [compound 134, 4-((4-((3-Bromo-4-fluorobenzyl)oxy)-2-(4-methylpiperazin-1-yl)pyrimidin-5-yl)thio)-2-(trifluoromethyl)benzamide] |
| ≤ 5.92 | C[C@H](Oc1nc(N2CCN(C)CC2)ncc1Sc1ccc(C(N)=O)cc1)c1ccc(F)cc1 [100n, (S)-4-((4-(1-(4-Fluorophenyl)ethoxy)-2-(4-methylpiperazin-1-yl)pyrimidin-5-yl)thio)benzamide] |
| > 6.70 | CN1CCN(c2ncc(Sc3ccc(C(N)=O)c(Cl)c3)c(OCc3ccc(F)c(Br)c3)n2)CC1 [compound 114, 4-((4-((3-Bromo-4-fluorobenzyl)oxy)-2-(4-methylpiperazin-1-yl)pyrimidin-5-yl)thio)-2-chlorobenzamide] |

| pEC50 | Structure (SMILES) |
| --- | --- |
| 6.00 to 6.40 | CC(=O)c1ccc(Sc2cnc(N3CCN(C)CC3)nc2OCc2ccccc2)s1 [compound 30, 1-(5-((4-(Benzyloxy)-2-(4-methylpiperazin-1-yl)pyrimidin-5-yl)thio)thiophen-2-yl)ethanone] |
| 6.00 to 6.40 | COc1ccc(Sc2cnc(N3CCN(C)CC3)nc2OCc2ccccc2)c(N)c1 [compound 62, 2-((4-(Benzyloxy)-2-(4-methylpiperazin-1-yl)pyrimidin-5-yl)thio)-5-methoxyaniline] |
| 6.00 to 6.40 | CN1CCN(c2ncc(Oc3ccc(C(N)=O)cc3)c(OCc3cccc(N(C)C)c3)n2)CC1 [compound 284, 4-((4-((3-(Dimethylamino)benzyl)oxy)-2-(4-methylpiperazin-1-yl)pyrimidin-5-yl)oxy)benzamide] |
| > 6.70 | COc1cc(COc2nc(N3CCN(C)CC3)ncc2Sc2ccc(N)nc2)ccc1F [compound 151, 5-((4-((4-Fluoro-3-methoxybenzyl)oxy)-2-(4-methylpiperazin-1-yl)pyrimidin-5-yl)thio)pyridin-2-amine] |
| 6.00 to 6.40 | CN1CCN(c2ncc(Sc3ccc(C#N)cc3)c(OCc3ccccc3)n2)CC1 [compound 44, 4-((4-(Benzyloxy)-2-(4-methylpiperazin-1-yl)pyrimidin-5-yl)thio)benzonitrile] |
| 6.40 to 6.70 | CN1CCN(c2ncc(Sc3ccc(C(N)=O)cc3)c(NCc3ccccc3)n2)CC1 [compound 102, 4-((4-(Benzylamino)-2-(4-methylpiperazin-1-yl)pyrimidin-5-yl)thio)benzamide] |
| 6.40 to 6.70 | CN1CCN(c2ncc(Sc3ccc(C(N)=O)cc3)c(OCc3ccccc3)n2)CC1 [compound 66, 4-((4-(Benzyloxy)-2-(4-methylpiperazin-1-yl)pyrimidin-5-yl)thio)benzamide] |
| 6.00 to 6.40 | CN1CCN(c2ncc(Sc3ccc(C(N)=O)cc3)c(OCc3ccco3)n2)CC1 [100i, 4-((4-(Furan-2-ylmethoxy)-2-(4-methylpiperazin-1-yl)pyrimidin-5-yl)thio)benzamide] |
| 5.92 to 6.00 | CC(C)N1CCN(c2ncc(Sc3ccc(C(N)=O)cc3)c(OCc3cccc(N(C)C)c3)n2)CC1 [185b, 4-((4-((3-(Dimethylamino)benzyl)oxy)-2-(4-isopropylpiperazin-1-yl)pyrimidin-5-yl)thio)benzamide] |
| > 6.70 | C#CCCCN1CCN(c2ncc(Sc3ccc(C(N)=O)cc3)c(OCc3cccc(OC)c3)n2)CC1 [190k, 4-((4-((3-Methoxybenzyl)oxy)-2-(4-(pent-4-yn-1-yl)piperazin-1-yl)pyrimidin-5-yl)thio)benzamide] |
| > 6.70 | COc1cccc(COc2nc(N3CCN(Cc4nccs4)CC3)ncc2Sc2ccc(C(N)=O)cc2)c1 [190v, 4-((4-((3-Methoxybenzyl)oxy)-2-(4-(thiazol-2-ylmethyl)piperazin-1-yl)pyrimidin-5-yl)thio)benzamide] |
| > 6.70 | COc1cccc(COc2nc(N3CC[C@@H](N(C)C)C3)ncc2Sc2ccc(N)nc2)c1 [compound 375, (R)-5-((2-(3-(Dimethylamino)pyrrolidin-1-yl)-4-((3-methoxybenzyl)oxy)pyrimidin-5-yl)thio)pyridin-2-amine] |
| > 6.70 | CN(C)[C@@H]1CCN(c2ncc(Sc3ccc(C(N)=O)c(C(F)(F)F)c3)c(OCc3cccc(Cl)c3)n2)C1 [compound 218, (R)-4-((4-((3-Chlorobenzyl)oxy)-2-(3-(dimethylamino)pyrrolidin-1-yl)pyrimidin-5-yl)thio)-2-(trifluoromethyl)benzamide] |
| > 6.70 | COc1c(F)ccc(COc2nc(N3CCN(C)CC3)ncc2Sc2ccc(N)nc2)c1F [compound 158, 5-((4-((2,4-Difluoro-3-methoxybenzyl)oxy)-2-(4-methylpiperazin-1-yl)pyrimidin-5-yl)thio)pyridin-2-amine] |
| > 6.70 | COc1cc(COc2nc(N3CCN(C)CC3)ncc2Sc2ccc(C(N)=O)c(Cl)c2)ccc1F [compound 111, 2-Chloro-4-((4-((4-fluoro-3-methoxybenzyl)oxy)-2-(4-methylpiperazin-1-yl)pyrimidin-5-yl)thio)benzamide] |
| 6.40 to 6.70 | COc1ccc(Sc2cnc(N3CCN(C)CC3)nc2OCc2ccccc2)cc1N [compound 11, 5-((4-(Benzyloxy)-2-(4-methylpiperazin-1-yl)pyrimidin-5-yl)thio)-2-methoxyaniline] |
| 5.92 to 6.00 | CN(C)c1cccc(COc2nc(-c3cc[nH]c3)ncc2Sc2ccc(C(N)=O)cc2)c1 [compound 187, 4-((4-((3-(Dimethylamino)benzyl)oxy)-2-(1H-pyrrol-3-yl)pyrimidin-5-yl)thio)benzamide] |
| > 6.70 | COc1cccc(COc2nc(N3CCN(C)CC3)ncc2Sc2ccc(C(N)=O)c(Cl)c2)c1 [compound 108, 2-Chloro-4-((4-((3-methoxybenzyl)oxy)-2-(4-methylpiperazin-1-yl)pyrimidin-5-yl)thio)benzamide] |
